Test results taken from patent US20220193126A1, “METHODS OF TREATING IMBALANCE OF PLASMA LIPIDS LEVEL AND FATTY LIVER WITH M2C MACROPHAGES” (National Pingtung University of Science and Technology, priority 2020, published 2022).

Key:
[1] = system: MERTK; assay: Flow cytometry confirmation of MERTK expression on M2C macrophages; format: cell-based, mouse; conditions: baicalin-treated vs placebo-treated macrophages
Description: The bone marrow was flushed out from the femurs of mice (C57BL/6J, 8-week-old to 20-week-old, from National Laboratory Animal Center in Taipei, Taiwan) with phosphate-buffered saline (PBS) containing BSA 0.5%. The peripheral blood or bone marrow flushing fluid were layered with Ficoll-Hypaque (GE Healthcare, Uppsala, Sweden) and centrifuged at 400×g for 40 minutes at 18° C. to isolate the mononuclear cell of peripheral blood and bone marrow. The interphase layer containing mononuclear cell was washed with PBS and centrifuged for 10 minutes at 100×g, 18° C. twice. Plate mononuclear cells in dish culture with RPM 1640 supplemented with 10% FBS (fetal bovine serum) and 50 ng/ml recombinant mouse M-CSF (PeproTech, British) at 37° C. and 5% CO2 for 7 days to induce the mononuclear cells to differentiate into macrophage. On the next day of the 7th day of M-CSF treatment, 5×10^5 cells of bone marrow derived macrophages (BMDM) cells were plated in RPMI 1640 (10% FBS) and incubated overnight. […]
1×10^6 cells of the M2C macrophages induced by baicalin were analyzed by flow cytometry to confirm whether the M2C macrophages express MERTK. Fluorescence-labelled anti-mouse antibodies (Biolegend, the U.S.A.), FITC-anti-CD 11b and PE-anti-MERTK, are used in the analysis. […] After removing supernatant, the sample was dissolved in 1 ml of PBS and analyzed by flow cytometry.

[2] = system: bone marrow derived macrophages (BMDM); assay: Induction of M2C macrophage polarization by baicalin (morphology, microscope images); format: cell-based, mice (C57BL/6J); conditions: 50 μM Baicalin for 24 hours, vs placebo-treated group (M-CSF) spindle shape
Description: The bone marrow was flushed out from the femurs of mice (C57BL/6J, 8-week-old to 20-week-old, from National Laboratory Animal Center in Taipei, Taiwan) with phosphate-buffered saline (PBS) containing BSA 0.5%. The peripheral blood or bone marrow flushing fluid were layered with Ficoll-Hypaque (GE Healthcare, Uppsala, Sweden) and centrifuged at 400×g for 40 minutes at 18° C. to isolate the mononuclear cell of peripheral blood and bone marrow. The interphase layer containing mononuclear cell was washed with PBS and centrifuged for 10 minutes at 100×g, 18° C. twice. Plate mononuclear cells in dish culture with RPM 1640 supplemented with 10% FBS (fetal bovine serum) and 50 ng/ml recombinant mouse M-CSF (PeproTech, British) at 37° C. and 5% CO2 for 7 days to induce the mononuclear cells to differentiate into macrophage. On the next day of the 7th day of M-CSF treatment, 5×10^5 cells of bone marrow derived macrophages (BMDM) cells were plated in RPMI 1640 (10% FBS) and incubated overnight. After overnight incubation, the BMDM cells were incubated in RPMI 1640 (10% FBS) supplemented with 50 μM Baicalin for 24 hours to induce the BMDM cells to polarize into […] macrophage.

## O=C(O)[C@H]1O[C@@H](Oc2cc3oc(-c4ccccc4)cc(=O)c3c(O)c2O)[C@H](O)[C@@H](O)[C@@H]1O [baicalin]
[1]
  average MERTK expression level on single cell (mean fluorescence intensity, MFI): significantly enhanced
[2]
  morphology of the macrophages: basically round shape
